Data reported in patent publication US7772187B2, “Substances directed against a specific sequence essential for heparanase catalytic activity and uses thereof as heparanase inhibitors” (Hadasit Medical Research Services and Development Company, …, priority 2004, dated 2010).

Legend:
[1] = test system: heparanase processing; assay: Heparanase processing in heparanase-transfected cells (immunoblot with antibody #1453); type: cell-based, human
Description: Total cell lysates were immunoblotted with anti-heparanase antibody #1453.
Total cell lysates were then analyzed for heparanase processing by immunoblotting as above.
Total cell lysates were analyzed by immunoblotting as above.
Cell extracts were prepared using a lysis buffer containing 50 mM Tris-HCl, pH 7.4, 150 mM NaCl, 0.5% Triton X-100, supplemented with a cocktail of protease inhibitors (Roche, Indianapolis, Ind.). Protein concentration was determined (Bradford reagent, BioRad, Hercules, Calif.) and 30 μg protein was resolved by SDS-PAGE under reducing conditions using 10% gels. After electrophoresis, proteins were transferred to PVDF membrane (BioRad) and probed with the appropriate antibody followed by HRP-conjugated secondary antibody (Jackson ImmunoResearch, West Grove, Pa.) and an enhanced chemiluminescent substrate (Pierce).

[2] = test system: heparanase processing; settings: U87 glioma cells pre-treated with 100 μM for 2 hours
Description: The latent 65 kDa heparanase protein was then added for the indicated time points and total cell lysates were analyzed for heparanase processing by immunoblotting as above.
Cells were then fixed and immunostained with anti heparanase monoclonal antibody (BD, upper panel) and anti heparanase (733, second panel) antibodies. Merge images are shown at the third panel.
For uptake studies, the 65 kDa heparanase precursor was added to confluent cell cultures at a concentration of 1 μg/ml under serum-free conditions. At the indicated time points, the medium was aspirated, cells were washed twice with ice-cold PBS and total cell lysates were prepared as described. Heparanase uptake and processing were analyzed by immunoblotting with antibody #1453.

[3] = test system: heparanase processing
Description: In order to further rule out the plasma membrane as the heparanase processing site, heparanase was targeted to the cell membrane by introducing the PDGF-R transmembrane domain at the heparanase C-terminus.

[4] = biological target: T1, heparanase (Homo sapiens, UniProt Q9Y251); assay: Heparanase activity assay, purified/recombinant active heparanase on 35S-labeled ECM; type: biochemical; settings: recombinant active heparanase 40 ng, 2 h, pH 7, 10 μg or 25 μg peptide, dose dependent, versus scrambled peptide
T1 construct: a heterodimer composed of the 8 kDa polypeptide non-covalently associated with the 50 kDa heparanase subunit; ImClone Systems Inc. (gift of Dr Miao, not purchased)
T1 sequence (Q9Y251 158-543 limits assumed): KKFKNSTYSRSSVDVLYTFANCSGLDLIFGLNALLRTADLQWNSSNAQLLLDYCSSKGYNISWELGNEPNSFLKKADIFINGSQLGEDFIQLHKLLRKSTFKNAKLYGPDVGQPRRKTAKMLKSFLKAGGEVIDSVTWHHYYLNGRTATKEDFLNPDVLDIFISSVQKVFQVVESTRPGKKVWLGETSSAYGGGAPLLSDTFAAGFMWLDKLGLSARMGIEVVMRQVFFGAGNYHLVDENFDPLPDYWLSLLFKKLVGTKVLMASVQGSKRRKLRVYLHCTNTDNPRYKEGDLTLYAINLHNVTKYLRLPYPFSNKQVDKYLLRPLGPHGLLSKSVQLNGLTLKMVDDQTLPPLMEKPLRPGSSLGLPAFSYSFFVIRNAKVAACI
T1 sequence (Q9Y251 36-109 partner limits assumed): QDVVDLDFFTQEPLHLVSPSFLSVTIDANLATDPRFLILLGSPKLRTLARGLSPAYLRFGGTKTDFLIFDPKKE
Description: FIG. 6A. Purified, active heparanase (20 ng) was added to 1 ml RPMI medium and incubated with affinity-purified antibody #733 (10 μg, ▴), or rabbit IgG (♦) for 1 hour on ice, followed by 1 hour incubation with ^35S-labeled ECM. Heparanase activity was determined as described in ‘Experimental procedures’.
A Purified, recombinant active heparanase (40 ng) was incubated (2 h, pH 7) with 10 μg (▴) or 25 μg (▪) of a peptide containing the amino acid sequence of residues 158 to 171, or with a control, scrambled, peptide (♦). Note a dose-responsive inhibition of heparanase activity upon treatment with the 158-171 peptide.
Preparation of ECM-coated dishes and determination of heparanase activity were performed as described in detail elsewhere [Vlodavsky, I. Current protocols in Cell Biology Vol. 1 pp. 10.14.11-10.14.14, John Wiley & Sons, New York (1999b); Goldshmidt, O. et al., J. Biol. Chem. 276, 29178-29187 (2001); Goldshmidt (2002) ibid.]. […]
To further investigate the importance of this sequence in heparanase catalytic activity, competition experiments were next performed. In these experiments, recombinant active heparanase (40 ng) was incubated (2 h, pH 7) with different concentrations of a peptide containing the amino acid sequence of residues 158 to 171, or with a control scrambled peptide (Scr), and enzymatic activity was determined. […]

[5] = biological target: T2, heparanase (Homo sapiens, UniProt Q9Y251); settings: literature (Miao 1999; Parish 1999; Vlodavsky 1994); cited from earlier work
T2 sequence (Q9Y251 36-543): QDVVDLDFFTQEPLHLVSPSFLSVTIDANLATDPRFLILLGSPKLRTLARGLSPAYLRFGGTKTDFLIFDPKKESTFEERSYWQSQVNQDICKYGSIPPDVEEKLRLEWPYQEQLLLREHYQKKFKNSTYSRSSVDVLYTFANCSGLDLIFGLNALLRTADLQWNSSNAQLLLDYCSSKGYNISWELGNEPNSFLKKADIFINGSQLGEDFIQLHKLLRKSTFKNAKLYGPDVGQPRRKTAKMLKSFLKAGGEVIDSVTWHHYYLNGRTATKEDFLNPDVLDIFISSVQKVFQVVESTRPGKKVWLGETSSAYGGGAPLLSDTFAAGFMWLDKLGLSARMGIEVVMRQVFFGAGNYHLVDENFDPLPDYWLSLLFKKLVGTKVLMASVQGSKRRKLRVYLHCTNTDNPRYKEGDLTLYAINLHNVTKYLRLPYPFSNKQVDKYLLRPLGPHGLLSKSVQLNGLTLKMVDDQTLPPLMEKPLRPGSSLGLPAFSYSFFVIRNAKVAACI

Compound: CO/C1=C\C(C)=C\[C@@H](C)[C@@H](O)[C@@H](C)C/C(C)=C/C=C/[C@H](OC)[C@@H]([C@@H](C)[C@@H](O)[C@H](C)[C@@]2(O)C[C@@H](O)[C@H](C)[C@@H](C(C)C)O2)OC1=O [bafilomycin A1]
- inhibition of heparanase processing ([1]; heparanase-transfected C6 glioma and NMU cells, indicated concentration (nM), 20 hours): complete inhibition
- concentration that completely inhibited heparanase processing ([1]; transfected C6 glioma and NMU cells, 20 hours): ≤ 250 nM

Compound: CCN(CC)CCCC(C)Nc1ccnc2cc(Cl)ccc12 (stereo not shown) [chloroquine]
- reversibility of the inhibition of heparanase processing ([1]; heparanase-transfected C6 glioma cells, 50 μM 20 hours, then 24 hours chase in chloroquine-free medium): reversible
- inhibition of heparanase processing ([1]; heparanase-transfected HEK-293, MDA-435, C6 and NMU cells, increasing concentrations, 20 hours, dose dependent): completely inhibited
- inhibition of processing of exogenously-added heparanase [2]: completely inhibited
- inhibition of processing of membrane-targeted heparanase [3]: completely abolished

Compound: KKFKNSTYSRSSVD (listed as Homo sapiens) [synthetic peptide of residues Lys158-Asp171 of human heparanase]
- inhibition of heparanase enzymatic activity [4]: significantly inhibited
- inhibition of heparanase enzymatic activity ([4]; listed as Synthetic Peptide Comprising Amino Acid Residues 158 to 171 of Heparanase): Completely Blocks

Compound: PI-88
- inhibition of heparanase activity [5]: inhibit heparanase activity

Compound: laminaran sulfate
- inhibition of heparanase activity [5]: inhibit heparanase activity
